The numbers were not newly measured in patent US6441051B1, “Insect eradicator and method” (priority 2001, dated 2002), which cites them from elsewhere.

In the series the test system is fire ants. The settings on record: d-limonene at about 5% concentration, after twenty-four hours.

Take `C=C(C)[C@H]1CC=C(C)CC1` [d-limonene]: the kill rate entry is recorded as “approximately 70%”.
